Reference: ChEMBL document CHEMBL1201862, “PubChem BioAssay data set” (2004)
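The compound was tested at five concentrations on cells cultured in 96-well plates, with a 48-hour exposure period. Abbreviation: GI50, concentration required for 50% inhibition of growth.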 Activity calls are given as the source filed them. Rule as the data show it: active = GI50 up to about 1.1 µM and inactive = higher.

How the values were obtained:
Assay in all cases: growth of human tumour cells (NCI), 48 h
Malme-3M = test system: Malme-3M
HCT-15 = test system: HCT-15
RXF 393 = test system: RXF 393
HOP-92 = test system: HOP-92
SK-OV-3 = test system: SK-OV-3
UACC-257 = test system: UACC-257
EKVX = test system: EKVX
U-251 = test system: U-251
OVCAR-5 = test system: OVCAR-5
SK-MEL-5 = test system: SK-MEL-5
HT-29 = test system: HT-29
COLO 205 = test system: COLO 205
MCF7 = test system: MCF7
UO-31 = test system: UO-31
A549 = test system: A549
HCT-116 = test system: HCT-116
OVCAR-4 = test system: OVCAR-4
KM12 = test system: KM12
TK-10 = test system: TK-10

SMILES: Nc1ccc2[nH]c3c(-c4ccccc4)nccc3c2c1
- GI50 (Malme-3M): 76.4 µM (inactive)
- GI50 (HCT-15): 41.3 µM
- GI50 (RXF 393): 38.2 µM (inactive)
- GI50 (HOP-92): 39.1 µM (inactive)
- GI50 (SK-OV-3): 54.2 µM (inactive)
- GI50 (UACC-257): > 75.3 µM (inactive)
- GI50 (EKVX): > 100 µM (inactive)
- GI50 (U-251): 75 µM (inactive)
- GI50 (OVCAR-5): > 88.3 µM (inactive)
- GI50 (SK-MEL-5): 19.8 µM (inactive)
- GI50 (HT-29): 36.1 µM (inactive)
- GI50 (COLO 205): 44 µM (inactive)
- GI50 (MCF7): > 45.1 µM (inactive)
- GI50 (UO-31): 37.7 µM (inactive)
- GI50 (A549): 48.9 µM (inactive)
- GI50 (HCT-116): 34.6 µM (inactive)
- GI50 (OVCAR-4): 23.7 µM (inactive)
- GI50 (KM12): 53.7 µM (inactive)

SMILES: [N-]=[N+]=CC(=O)OCC(N)C(=O)O (stereo unspecified)
- GI50 (Malme-3M): 54.8 µM (inactive)
- GI50 (HCT-15): 0.297 µM
- GI50 (RXF 393): 15.7 µM (inactive)
- GI50 (HOP-92): 82 µM (inactive)
- GI50 (SK-OV-3): 2.42 µM (inactive)
- GI50 (UACC-257): 95.9 µM (inactive)
- GI50 (EKVX): 0.413 µM (active)
- GI50 (U-251): 0.502 µM (active)
- GI50 (OVCAR-5): 14.6 µM (inactive)
- GI50 (SK-MEL-5): 0.847 µM (active)
- GI50 (HT-29): 0.177 µM (active)
- GI50 (COLO 205): 0.269 µM (active)
- GI50 (MCF7): 0.217 µM (active)
- GI50 (UO-31): 2.61 µM (inactive)
- GI50 (A549): 0.557 µM (active)
- GI50 (HCT-116): 0.403 µM (active)
- GI50 (OVCAR-4): 14.1 µM (inactive)
- GI50 (KM12): 0.406 µM (active)

SMILES: Nc1ncnc2c1ncn2[C@@H]1O[C@H](COP(=O)(O)O)[C@@H](O)[C@@H]1O
- GI50 (Malme-3M): > 50 µM (inactive)
- GI50 (HCT-15): > 50 µM
- GI50 (RXF 393): > 50 µM (inactive)
- GI50 (HOP-92): > 31.3 µM (inactive)
- GI50 (SK-OV-3): > 50 µM (inactive)
- GI50 (UACC-257): > 50 µM (inactive)
- GI50 (EKVX): > 50 µM (inactive)
- GI50 (U-251): > 50 µM (inactive)
- GI50 (OVCAR-5): > 40.7 µM (inactive)
- GI50 (SK-MEL-5): > 50 µM (inactive)
- GI50 (HT-29): > 50 µM (inactive)
- GI50 (COLO 205): > 50 µM (inactive)
- GI50 (MCF7): > 50 µM (inactive)
- GI50 (UO-31): > 50 µM (inactive)
- GI50 (A549): > 50 µM (inactive)
- GI50 (HCT-116): > 50 µM (inactive)
- GI50 (OVCAR-4): > 50 µM (inactive)
- GI50 (KM12): > 50 µM (inactive)

SMILES: Cc1c2ccnc(-c3ccccc3)c2cc2c1[nH]c1ccccc12
- GI50 (Malme-3M): 3.37 µM (inactive)
- GI50 (HCT-15): 0.773 µM
- GI50 (RXF 393): 2.42 µM (inactive)
- GI50 (HOP-92): 1.25 µM (inactive)
- GI50 (SK-OV-3): 2.9 µM (inactive)
- GI50 (UACC-257): 2.7 µM (inactive)
- GI50 (EKVX): 2.92 µM (inactive)
- GI50 (U-251): 0.873 µM (active)
- GI50 (OVCAR-5): 3.77 µM (inactive)
- GI50 (SK-MEL-5): 0.614 µM (active)
- GI50 (HT-29): 0.887 µM (active)
- GI50 (COLO 205): 0.735 µM (active)
- GI50 (MCF7): 2.13 µM (inactive)
- GI50 (UO-31): 1.33 µM (inactive)
- GI50 (A549): 1.29 µM (inactive)
- GI50 (HCT-116): 2.12 µM (inactive)
- GI50 (OVCAR-4): 2.56 µM (inactive)
- GI50 (KM12): 1.45 µM (inactive)

SMILES: O=c1cc(N2CCCC2)[nH]c(=O)n1-c1cccc(C(F)(F)F)c1
- GI50 (Malme-3M): > 100 µM (inactive)
- GI50 (HCT-15): > 100 µM
- GI50 (RXF 393): > 100 µM (inactive)
- GI50 (HOP-92): > 100 µM (inactive)
- GI50 (SK-OV-3): > 100 µM (inactive)
- GI50 (UACC-257): > 100 µM (inactive)
- GI50 (EKVX): > 100 µM (inactive)
- GI50 (U-251): > 100 µM (inactive)
- GI50 (OVCAR-5): > 100 µM (inactive)
- GI50 (HT-29): > 100 µM (inactive)
- GI50 (COLO 205): > 100 µM (inactive)
- GI50 (MCF7): > 100 µM (inactive)
- GI50 (HCT-116): > 100 µM (inactive)
- GI50 (OVCAR-4): > 100 µM (inactive)
- GI50 (TK-10): > 100 µM (inactive)
- GI50 (KM12): > 100 µM (inactive)

SMILES: C=C1C(=O)C[C@@]23CCC[C@@]12CC(O)C3 (stereo partly specified)
- GI50 (Malme-3M): 0.855 µM (active)
- GI50 (HCT-15): 13 µM
- GI50 (RXF 393): 13.7 µM (inactive)
- GI50 (HOP-92): 19.3 µM (inactive)
- GI50 (SK-OV-3): 28.1 µM (inactive)
- GI50 (UACC-257): 18.7 µM (inactive)
- GI50 (EKVX): 27.3 µM (inactive)
- GI50 (U-251): 40.3 µM (inactive)
- GI50 (OVCAR-5): 23.4 µM (inactive)
- GI50 (SK-MEL-5): 10.5 µM (inactive)
- GI50 (HT-29): 14.6 µM (inactive)
- GI50 (COLO 205): 21.3 µM (inactive)
- GI50 (MCF7): 16.7 µM (inactive)
- GI50 (UO-31): 37.6 µM (inactive)
- GI50 (A549): 30.3 µM (inactive)
- GI50 (HCT-116): 19 µM (inactive)
- GI50 (OVCAR-4): 18.6 µM (inactive)
- GI50 (KM12): 20.8 µM (inactive)
